Assay results: ChEMBL document CHEMBL1127870, “Substituted 4H-pyrido[1,2-a]pyrimidin-4-one angiotensin II receptor antagonists” (Bioorg Med Chem Lett, 1994)

test system: Rattus norvegicus; assay: Tested for drop in blood pressure over 5 hr when administered orally at 10 mg/kg in high renin rat hypertension model; assay type: functional; conditions: route oral

CCCOc1nc2ccccn2c(=O)c1Cc1ccc(-c2ccccc2-c2nn[nH]n2)cc1 gave a Blood pressure of 50 mmHg.

biological target: T1, Type-1 angiotensin II receptor (Bos taurus, UniProt P25104); assay: Binding affinity for angiotensin II receptor of bovine adrenal cortex; assay type: tissue-based; conditions: not given
T1 sequence (P25104 whole entry): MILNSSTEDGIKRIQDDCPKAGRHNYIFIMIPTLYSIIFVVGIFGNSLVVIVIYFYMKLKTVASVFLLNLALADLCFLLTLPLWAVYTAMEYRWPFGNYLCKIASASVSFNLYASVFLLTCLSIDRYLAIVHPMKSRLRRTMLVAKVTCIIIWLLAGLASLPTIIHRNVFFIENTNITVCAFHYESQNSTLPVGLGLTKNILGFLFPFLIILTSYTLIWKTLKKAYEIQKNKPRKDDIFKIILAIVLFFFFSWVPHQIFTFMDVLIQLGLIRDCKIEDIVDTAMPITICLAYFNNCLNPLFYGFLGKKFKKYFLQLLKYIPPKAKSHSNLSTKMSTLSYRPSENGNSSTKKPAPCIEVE

Going from Cc1ccc2nc(OC(C)C)c(Cc3ccc(-c4ccccc4-c4nnn[nH]4)cc3)c(=O)n2c1 to Cc1ccc2nc(OCC(C)C)c(Cc3ccc(-c4ccccc4-c4nnn[nH]4)cc3)c(=O)n2c1, the IC50 falls from 6 µM to 4 µM (1.5-fold). The second is the more potent here.

Going from COc1nc2ccccn2c(=O)c1Cc1ccc(-c2ccccc2-c2nn[nH]n2)cc1 to CCCOc1nc2ccccn2c(=O)c1Cc1ccc(-c2ccccc2-c2nn[nH]n2)cc1, the IC50 falls from 14 µM to 0.25 µM (56-fold).

First: CC(C)COc1nc2ccc(C(C)O)cn2c(=O)c1Cc1ccc(-c2ccccc2-c2nn[nH]n2)cc1 (centres undefined)
Second: CCCOc1nc2ccc(C)cn2c(=O)c1Cc1ccc(-c2ccccc2-c2nn[nH]n2)cc1
The IC50 of the first is 1.6-fold lower: 1 µM for the first, 1.6 µM for the second.

Compared with CCCCOc1nc2ccccn2c(=O)c1Cc1ccc(-c2ccccc2-c2nnn[nH]2)cc1, CCOc1nc2ccccn2c(=O)c1Cc1ccc(-c2ccccc2-c2nnn[nH]2)cc1 is 1.8-fold higher in IC50: 2.4 µM for the first, 4.4 µM for the second. The first is the more potent here.

First: CCOC(=O)c1ccc2nc(OC(C)C)c(Cc3ccc(-c4ccccc4-c4nn[nH]n4)cc3)c(=O)n2c1
Second: CC(C)Oc1nc2ccc(C(=O)O)cn2c(=O)c1Cc1ccc(-c2ccccc2-c2nnn[nH]2)cc1
The IC50 of the first is 14-fold lower: 4.9 µM for the first, 69.3 µM for the second.

First: CCCOc1nc2cc(C)ccn2c(=O)c1Cc1ccc(-c2ccccc2-c2nn[nH]n2)cc1
Second: CCCOc1nc2c(C)cccn2c(=O)c1Cc1ccc(-c2ccccc2-c2nn[nH]n2)cc1
The IC50 of the first is 1.5-fold lower: 4 µM for the first, 6 µM for the second. The first is the more potent here.

With CCCCc1nc(Cl)c(CO)n1Cc1ccc(-c2ccccc2-c2nn[nH]n2)cc1 [LOSARTAN] the IC50 was 0.3 µM.
